The values below come from US9682940B2, “Indazole derivatives useful as CB-1 inverse agonists” (Janssen Pharmaceutica NV, priority 2015, dated 2017).

Some results are limits rather than exact numbers.

For assay [1], the target named is Human CB1R (Cannabanoid receptor 1) (Homo sapiens (Human), UniProt P21554). The assay is described as follows: CB-1 in vitro cAMP (HTRF) assay in HEK-293 cells. Type of assay: cell-based. As to conditions: HEK-293 cells stably transfected with human CB1R, 250 nM Forskolin, mean where tested more than once, read-out: CB-1 (HEK_cAMP) EC50. The source says: (§1) CB1 and CB2 receptors are Gi-coupled GPCR. Activation of CB1 and CB2 receptors results in a decrease in cAMP production. An inverse agonist of the CB1 or CB2 receptor results in the opposite effect, an increase of cAMP production. The principle of this assay is based on HTRF® technology (Homogeneous Time-Resolved Fluorescence). The method is a competitive immunoassay between native cAMP produced by cells and the cAMP labeled with the fluorophore d2. The tracer binding is quantified by a Mab anti-cAMP labeled with Eu3+TBP-NHS Cryptate (supplied as part of the assay kit). The specific signal (i.e. energy transfer) is inversely proportional to the concentration of cAMP in the standard or sample.
(§2) Human CB1R (Cannabanoid receptor 1) was stably transfected in HEK-293 cells (DiscoveRx, cat: 93-0200C1). Human CB2R (Cannabanoid receptor 2) was stably transfected in HEK-293 cells (DiscoveRx, cat: 93-0201C1). Cell cultures were maintained in media: DMEM (Invitrogen Cat#12430-054) supplemented with 10% HI FBS (Invitrogen Cat#16140-071), 1% L-glutamine (Invitrogen Cat#25030-081), 0.2 mg/ml Hygromycin B (Invitrogen Cat#10687-010), 600 μg/mL G418 (Invitrogen Cat#10131-035), and 1× Penn/Strep (Invitrogen 15140-122). After cell expansion, aliquots were cryo-stored in media containing 5% DMSO (Pierce Cat#20684).
(§3) One day prior to experiments media was warmed to 37° C. and the cryo-stored cells were thawed in a 37° C. water bath. The cells were then added to media (10× volume) and the mixture was centrifugated at 1000 RPM for 5 min. The supernate was removed and the cells were re-suspended in media. A sample of the cell suspension was evaluated on a Cedex XS automated cell counter (Innovatis Systems) to determine viable cells/ml. Additional media was added to the cells to achieve a final cell density of 4E5 cells/mL. The cells were then plated into 384 well PDL white solid bottom plates (Greiner, Cat#781945) at 20 μL per well using a Multidrop (Thermo Scientific). Cells were removed from Row P (location of cAMP standards). Two columns of cells were plated into a clear bottom 384 well PDL coated plate (Greiner, Cat#781944) to view confluence the day of the assay. The cell plates were lidded and stored for 15 minutes in a hood, then transferred to an incubator (37° C., 5% CO2, 95% humidity) overnight.
(§4) DMSO was added to all wells of 384 well V bottom polystyrene plate (Greiner, Cat#781280) except to columns 1 and 13, rows O and P and wells M13-M23 and N13-N23. Test compounds (60 μL, 10 mM) were added to Column 1 and 13 (A1 through N1 and A13 through L13). Test compounds were serially diluted 1/3 by transferring and mixing 20 μl sample with 40 μL DMSO.
(§5) DMSO (40 μL) was added to wells of 384 well V bottom polystyrene plate: O2 through O11, M14 through M23, N14 through N23, and O14 through 023. AM630 (also known as [6-iodo-2-methyl-1-[2-(4-morpholinyl)ethyl]-1H-indol-3-yl](4-methoxyphenyl)-methanone, Cayman Chemical, Cat#10006974) (60 μL, 10 mM) was added to 01; and 1-(2,4-dichlorophenyl)-7-[(4-fluorophenyl)methylene]-4,5,6,7-tetrahydro-N-1-piperidinyl-1H-indazole-3-carboxamide (60 μL, 10 mM) was added to N13. The control was serially diluted 1/3 by transferring and mixing 20 μl sample with 40 μL DMSO. This process resulted 11 doses per control, 10 mM to […].
(§6) Cells plated the day prior to the assay in clear bottom plates were viewed on an inverse microscope to ensure confluency in the range of 60-75%. […]
On the technique in general: TR-FRET usually uses a lanthanide donor and a delayed reading to cut background.

Assay [2] deals with Human CB2R (Cannabanoid receptor 2) (Homo sapiens (Human), UniProt P34972). Description: CB-2 in vitro cAMP (HTRF) assay in HEK-293 cells. The assay is classed as cell-based. The following applies: HEK-293 cells stably transfected with human CB2R, 250 nM Forskolin, mean where tested more than once, read-out: CB-2 (HEK_cAMP) EC50.
Excerpt: as §1, §2, §3, §4, §5, §6

Sequence of Human CB2R (Cannabanoid receptor 2) (P34972 whole entry): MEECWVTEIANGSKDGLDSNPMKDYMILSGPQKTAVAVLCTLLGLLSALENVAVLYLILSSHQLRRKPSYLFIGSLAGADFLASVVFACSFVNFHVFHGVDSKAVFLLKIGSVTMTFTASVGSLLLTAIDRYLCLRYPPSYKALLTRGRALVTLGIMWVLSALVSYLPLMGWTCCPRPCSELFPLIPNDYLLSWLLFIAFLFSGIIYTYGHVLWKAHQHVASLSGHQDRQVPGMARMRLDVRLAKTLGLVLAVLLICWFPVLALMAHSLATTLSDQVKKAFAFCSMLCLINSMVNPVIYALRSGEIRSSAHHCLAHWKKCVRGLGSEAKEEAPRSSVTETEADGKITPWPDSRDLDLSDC
Sequence of Human CB1R (Cannabanoid receptor 1) (P21554 whole entry): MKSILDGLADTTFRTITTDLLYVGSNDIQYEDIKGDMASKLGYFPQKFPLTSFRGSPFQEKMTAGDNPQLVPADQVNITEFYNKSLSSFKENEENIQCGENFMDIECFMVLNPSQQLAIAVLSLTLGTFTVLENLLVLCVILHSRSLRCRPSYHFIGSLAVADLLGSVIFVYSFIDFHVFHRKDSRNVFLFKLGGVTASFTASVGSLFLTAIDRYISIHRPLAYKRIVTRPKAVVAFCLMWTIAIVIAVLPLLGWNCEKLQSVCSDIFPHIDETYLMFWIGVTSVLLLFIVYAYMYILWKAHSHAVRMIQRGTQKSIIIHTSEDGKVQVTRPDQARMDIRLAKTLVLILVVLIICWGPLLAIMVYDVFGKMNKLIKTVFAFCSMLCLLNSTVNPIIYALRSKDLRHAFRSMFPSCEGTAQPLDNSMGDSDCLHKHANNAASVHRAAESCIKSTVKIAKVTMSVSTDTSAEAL

By EC50 is commonly meant the concentration needed to bring the measured effect to its halfway point. As for `O=S(=O)(N1CCC(c2nn(-c3ccc(Cl)c(Cl)c3)c3ccc(C(c4ccc(Cl)cc4)c4ccc(Cl)cc4)cc23)CC1)C(F)(F)F` [Compound 58], the EC50 was 13 nM in assay [1] and greater than 10000 nM in assay [2].
As for `NC(=O)c1cccc(C(=O)N2CCC(c3c4cc(C(c5ccc(Cl)cc5)c5ccc(Cl)cc5)ccc4nn3C3CC3)CC2)c1` [Compound 112], the figures for the EC50 in assay [1] and in assay [2] were 62 nM and greater than 10000 nM, respectively.
For `NC(=O)c1ccccc1C(=O)N1CCC(c2c3cc(C(c4ccc(Cl)cc4)c4ccc(Cl)cc4)ccc3nn2C2CC2)CC1` [Compound 124], in that order: 236 nM and greater than 10000 nM.
As for `O=C(O)c1ccc([C@H](c2ccc(Cl)cc2)c2ccc3[nH]nc(N4CCN(S(=O)(=O)C(F)(F)F)CC4)c3c2)cc1` [Compound 233], the figures for the EC50 in assay [1] and in assay [2] were 3550 nM and greater than 10000 nM, respectively.
Turning to `O=C(O)c1ccc(S(=O)(=O)N2CCC(c3n[nH]c4ccc(C(c5ccc(Cl)cc5)c5ccc(Cl)cc5)cc34)CC2)s1` [Compound 261], the concentration giving a half-maximal response (EC50) in assay [1] was determined as 271 nM; in assay [2] it was 6820 nM.
For `O=S(=O)(C(F)F)N1CCC(c2n[nH]c3ccc(C(c4ccc(Cl)cc4)c4ccc(Cl)cc4)cc23)CC1` [Compound 81], in that order: 7320 nM and greater than 10000 nM.
Consider `O=C(O)c1cccc(S(=O)(=O)N2CCC(c3n[nH]c4ccc(C(c5ccc(Cl)cc5)c5ccc(Cl)cc5)cc34)CC2)c1` [Compound 61], for which the EC50 is 191 nM in assay [1] and greater than 10000 nM in assay [2].
For `COc1ccccc1S(=O)(=O)N1CCC(Nc2n[nH]c3ccc(C(c4ccc(Cl)cc4)c4ccc(Cl)cc4)cc23)CC1` [Compound 100], in that order: 428 nM and greater than 10000 nM.
Taken in the same sequence, the figures for `O=C(O)c1ccccc1C(=O)N1CCC(c2nn(C3CC3)c3ccc(C(c4ccc(Cl)cc4)c4ccc(Cl)cc4)cc23)CC1` [Compound 103] were 6010 nM and greater than 10000 nM.
Turning to `O=S(=O)(N1CCC(c2nn(-c3cccc(C(F)(F)F)c3)c3ccc(C(c4ccc(Cl)cc4)c4ccc(Cl)cc4)cc23)CC1)C(F)(F)F` [Compound 57], the values for the EC50 in assay [1] and in assay [2] were 474 nM and greater than 10000 nM, respectively.
Taken in the same sequence, the figures for `O=C(O)CCNC(=O)c1ccc(-n2nc(C3CCN(S(=O)(=O)C(F)(F)F)CC3)c3cc(C(c4ccc(Cl)cc4)c4ccc(Cl)cc4)ccc32)cc1` [Compound 230] were 3260 nM and greater than 10000 nM.
In the case of `O=C(O)Cc1ccc(N2CCC(c3nn(C4CC4)c4ccc(C(c5ccc(Cl)cc5)c5ccc(Cl)cc5)cc34)CC2)cc1` [Compound 181], the EC50 is 7800 nM in assay [1] and greater than 10000 nM in assay [2].
For `O=S(=O)(N1CCC(c2nn(-c3cccc(Cl)c3)c3ccc(C(c4ccc(Cl)cc4)c4ccc(Cl)cc4)cc23)CC1)C(F)(F)F` [Compound 47], in that order: 41 nM and greater than 10000 nM.
For `Cn1nc(C2CCN(S(=O)(=O)c3cccc(C(=O)O)c3)CC2)c2cc(C(c3ccc(Cl)cc3)c3ccc(Cl)cc3)ccc21` [Compound 63], in that order: 66 nM and greater than 10000 nM.
Consider `COC(=O)c1ccc(S(=O)(=O)N2CCC(c3n[nH]c4ccc(C(c5ccc(Cl)cc5)c5ccc(Cl)cc5)cc34)CC2)o1` [Compound 260], for which the EC50 in assay [1] is 25 nM; in assay [2], greater than 42000 nM.
As for `O=C(O)Cc1cccc(N2CCC(c3c4cc(C(c5ccc(Cl)cc5)c5ccc(Cl)cc5)ccc4nn3C3CC3)CC2)c1` [Compound 185], the EC50 was 833 nM in assay [1] and greater than 10000 nM in assay [2].
For `COc1ccc(S(=O)(=O)N2CCC(c3c4cc(C(c5ccc(Cl)cc5)c5ccc(Cl)cc5)ccc4nn3C3CC3)CC2)cc1C(=O)O` [Compound 164, 5-(4-(5-(bis(4-chlorophenyl)methyl)-2-cyclopropyl-2H-indazol-3-yl)piperidin-1-ylsulfonyl)-2-methoxybenzoic acid], in that order: 26 nM and greater than 10000 nM.
Taken in the same sequence, the figures for `NC(=O)c1cccc(N2CCC(c3nn(C4CC4)c4ccc(C(c5ccc(Cl)cc5)c5ccc(Cl)cc5)cc34)CC2)c1` [Compound 179] were 93 nM and greater than 10000 nM.
Turning to `NC(=O)c1csc(CN2CCC(c3c4cc(C(c5ccc(Cl)cc5)c5ccc(Cl)cc5)ccc4nn3C3CC3)CC2)c1` [Compound 237, 5-((4-(5-(bis(4-chlorophenyl)methyl)-2-cyclopropyl-2H-indazol-3-yl)piperidin-1-yl)methyl)thiophene-3-carboxamide], the figures for the EC50 in assay [1] and in assay [2] were 5 nM and greater than 10000 nM, respectively.
Taken in the same sequence, the figures for `O=C(O)c1ccc(CN2CCC(c3nn(C4CC4)c4ccc(C(c5ccc(Cl)cc5)c5ccc(Cl)cc5)cc34)CC2)o1` [Compound 250] were 43 nM and greater than 10000 nM.
For `O=C(O)c1ccc([C@H](c2ccc(Cl)cc2)c2ccc3[nH]nc(C4CCN(S(=O)(=O)C(F)(F)F)CC4)c3c2)cc1` [Compound 231], in that order: 4200 nM and greater than 10000 nM.
On to `O=C(NCc1ccccc1)N1CCC(c2n[nH]c3ccc(C(c4ccc(Cl)cc4)c4ccc(Cl)cc4)cc23)CC1` [Compound 262], for which the values for the EC50 in assay [1] and in assay [2] were 672 nM and greater than 10000 nM, respectively.
Turning to `NC(=O)c1ccc(N2CCC(c3nn(C4CC4)c4ccc(C(c5ccc(Cl)cc5)c5ccc(Cl)cc5)cc34)CC2)cc1` [Compound 189], the EC50 is 23 nM in assay [1] and greater than 10000 nM in assay [2].
Turning to `CS(=O)(=O)N1CCC(Nc2n[nH]c3ccc(C(c4ccc(Cl)cc4)c4ccc(Cl)cc4)cc23)CC1` [Compound 125], the EC50 is 135 nM in assay [1] and greater than 10000 nM in assay [2].
With `O=C(OC1CCCC1)N1CCC(c2n[nH]c3ccc(C(c4ccc(Cl)cc4)c4ccc(Cl)cc4)cc23)CC1` [Compound 271], the EC50 in assay [1] was 40 nM; in assay [2] it was greater than 10000 nM.
Take `O=C(O)Cc1cccc(N2CCC(c3nn(C4CC4)c4ccc(C(c5ccc(Cl)cc5)c5ccc(Cl)cc5)cc34)CC2)c1` [Compound 180]: the concentration for a half-maximal effect (EC50) in assay [1] is 6550 nM; in assay [2], greater than 10000 nM.
As to `NC(=O)c1ccc(N2CCC(c3c4cc(C(c5ccc(Cl)cc5)c5ccc(Cl)cc5)ccc4nn3C3CC3)CC2)cc1` [Compound 194, 4-(4-(5-(bis(4-chlorophenyl)methyl)-2-cyclopropyl-2H-indazol-3-yl)piperidin-1-yl)benzamide], the concentration giving a half-maximal response (EC50) in assay [1] is 48 nM; in assay [2], greater than 10000 nM.
For the compound `NC(=O)c1ccc(CN2CCC(c3n[nH]c4ccc(C(c5ccc(Cl)cc5)c5ccc(Cl)cc5)cc34)CC2)cc1` [Compound 222], the EC50 in assay [1] was 163 nM; in assay [2], greater than 10000 nM.
For `NC(=O)c1ccccc1S(=O)(=O)N1CCC(c2n[nH]c3ccc(C(c4ccc(Cl)cc4)c4ccc(Cl)cc4)cc23)CC1` [Compound 40], in that order: 297 nM and 10200 nM.
On to `O=C(O)c1ccc(CN2CCC(c3c4cc(C(c5ccc(Cl)cc5)c5ccc(Cl)cc5)ccc4nn3C3CC3)CC2)o1` [Compound 228, 5-((4-(5-(bis(4-chlorophenyl)methyl)-2-cyclopropyl-2H-indazol-3-yl)piperidin-1-yl)methyl)furan-2-carboxylic acid], for which the concentration giving a half-maximal response (EC50) in assay [1] is 20 nM; in assay [2], greater than 10000 nM.
Taken in the same sequence, the figures for `NC(=O)C(=O)N1CCC(c2c3cc(C(c4ccc(Cl)cc4)c4ccc(Cl)cc4)ccc3nn2C2CC2)CC1` [Compound 138] were 587 nM and greater than 10000 nM.
